Test results as given in US9393225B2, “Melanoma chemoprevention” (University of Pittsburgh—Of the Commonwealth System of …, priority 2012, dated 2016).
Like-named read-outs stand apart in the source and are kept apart here.

Key:
SK-MEL37 = details: different concentrations of SFN for 24, 48, or 72 h, FIG. 1
SK-MEL 31 cells [1] = details: 24 hours
Method: (§1) Apoptosis induction in SFN-treated SK-MEL 31 cells was assessed by (i) quantification of cytoplasmic histone associated DNA fragments, (ii) Western blot analysis for PARP cleavage and (iii) DAPI dye for nuclear morphology assay. For quantification of cytoplasmic histone-associated DNA fraction, SK-MEL 31 cells were seeded at 4×10^3 cells/well in 96-well plate and allowed to attach overnight. […] After 24 hours, the floating and attached cells were pelleted and lysed with lysis buffer supplied with the cell death detection ELISA kit, lysates were assayed for apoptosis according to the manual. SK-MEL 31 cells were seeded at 1×10^4 cells/well on a round glass coverslip in 12 well plates. Cells were then incubated for 24 hours with 0, 10, or 20 μM SFN, attached cells were fixed with 3% paraformaldehyde in PBS, permeabilized with 1% TRITON® X-100, stained with DAPI dye and inspected under a fluorescent microscope after stained with DAPI.

PARP = details: 20 μM SFN, from 16 to 24 hour after treatment
Method: as §1
Cell lysate was cleared by centrifugation at 16000 rpm for 15 min. Lysate proteins were resolved by SDS-PAGE gel electrophoresis and transferred onto nitrocellulose membrane. The membrane was immersed into a phosphate buffered saline (PBS) solution containing 0.2% TWEEN® 20 and 5% (w/v) non-fat dry milk, and then incubated with desired primary antibody for 1 hour at room temperature. […]

Bax and Bak = details: 20 μM SFN
Method: (§2) Cell lysate was cleared by centrifugation at 16000 rpm for 15 min. Lysate proteins were resolved by SDS-PAGE gel electrophoresis and transferred onto nitrocellulose membrane. The membrane was immersed into a phosphate buffered saline (PBS) solution containing 0.2% TWEEN® 20 and 5% (w/v) non-fat dry milk, and then incubated with desired primary antibody for 1 hour at room temperature. After incubation with appropriate secondary antibody, the immunoreactive bands were visualized using enhanced chemiluminescence method. The conjugated horseradish peroxidase (HRP) secondary antibody was deactivated with sodium azide, then membranes were re-probed with anti-actin antibody to standardize protein loading. For cytochrome c and Smac/DIABLO, the cytosolic fractions were prepared with the PROTEOEXTRACT™ Subcellular Proteome Extraction kit according to the manufacturer's instructions and Western blot analysis were performed as described above.

Bcl-2 = details: 20 μM SFN, all time points
Method: as §2

Bcl-XL = details: 20 μM SFN, evident from the 2 hour time point
Method: as §2

Smac and cytochrome c = details: SFN incubation; significant increases after 8 hours
Method: as §2

cIAP1 and XIAP = details: SFN treatment, with time increasing
Method: as §2

[2] = tested on: procaspase-9, procaspase-8 and procaspase-3; details: 20 μM SFN, 24 hour time point
Method: as §2

caspase-8 = details: 20 μM SFN
Text: (§3) RPMI 1640, penicillin/streptomycin antibiotic mixture, and fetal bovine serum were from Gibco (Grand Island, N.Y.), propidium iodide and 4′,6′-diamidino-2-phenylindole-dihydrochloride (DAPI) were from Sigma (St Louis, Mo.). LIPOFECTAMINE 2000™ and G418 were purchased from Invitrogen (Carlsbad, Calif.). RNaseA was purchased from Promega (Madison, Wis.), and the reagents for electrophoresis were from Bio-Rad (Hercules, Calif.). Antibodies for Bcl-XL, Bak and cytochrome c were purchased from Santa Cruz Biotechnology (Santa Cruz, Calif.), antibodies specific for Bax, Smac/DIABLO, cleaved caspase-3 and cleaved caspase-8, cleaved caspase-9, cIAP1 and poly (ADP-ribose) polymerase (PARP) were purchased from Cell Signaling Technology (Beverly, Mass.), anti Bcl-2 antibody was purchased from Dakocytomation (Denmark), anti XIAP (X-linked inhibitor of apoptosis) antibody was purchased from BD PharMingen (San Diego, Calif.). Anti actin antibody was purchased from Oncogene Research Products (Boston, Mass.). The caspase inhibitors z-VAD fmk (general caspase inhibitor), z-IETD fmk (caspase-8 specific inhibitor) and z-LEHD fmk (caspase-9 specific inhibitor) were purchased from MP Biochemicals (Aurora, Ohio). The caspase-8 and caspase-9 colorimetric assay kits were purchased from R&D systems (Minneapolis, Minn.). Cytoplasmic histone associated DNA fragments detection ELISA kit was purchased from Roche Diagnostics GmbH (Mannheim, Germany). ProteoExtract™ Subcellular Proteome Extraction kit was purchased from Calbiochem (San Diego, Calif.).
(§4) Caspases are aspartate-specific cysteine proteases that play critical roles in apoptosis. Activation of caspases results in cleavage and inactivation of key cellular proteins, including the DNA repair enzyme PARP.

caspase-9 = details: 20 μM SFN, 24 hours
Text: as §3, §4

[3] = tested on: Cyclin B1, Cdk1, and Cdc25; details: SK-MEL31 cells, 20 μM SFN; FIG. 2
Text: The blots were stripped and re-probed with anti-actin antibody to normalize for differences in protein loading.

[4] = mice, at the doses used
Method: (§5) Female athymic mice (6-week-old) were purchased from Taconic (Germantown, N.Y.). SK-MEL 31 cells were suspended in pharmacological grade normal saline, and 0.1 ml suspension containing 5×10^6 cells was injected subcutaneously on right flank of each mouse. Mice were randomized into two groups of 10 mice per group. Experimental animals were gavaged with SFN (5.6 μmol SFN in 0.1 ml normal saline) three times per week (Monday, Wednesday and Friday) beginning two weeks before tumor implantation. Control mice received an equal volume of the vehicle. Tumor volume was determined based on measurement of the length and width of the tumor, […]. Statistical significance of difference in tumor volume was assessed by Student's t-test. Upon the termination of the experiment, the tumor tissues were harvested and processed for analysis of apoptotic bodies by immunohistochemistry method. Tumor tissues were embedded in paraffin, sectioned (6 μm), de-paraffinized and processed for determination of apoptotic bodies using APOTAG® Plus Peroxidase In Situ Apoptosis detection kit (Intergen, NY) according to the manufacturer's instructions. Brown color apoptotic bodies in tumor sections of control and SFN-treated group were counted by two pathologists independently and blindly under a microscope at 400× magnification. Four randomly selected fields on each tumor section were counted for apoptotic bodies.

SK-MEL 31 xenografts = tested on: SK-MEL 31 xenografts
Method: as §5

SK-MEL 31 cells [5] = details: 20 μM SFN, 24 hours, p<0.05
STAT3 = details: administered orally to SCID mice; FIG. 3
SK-MEL 31 cells [6] = experiment: Trypan blue dye exclusion assay (cell proliferation / viability); details: for number of viable cells compared with control: 24 hour

cleavage of procaspase-9, procaspase-8 and procaspase-3 [2]: resulted in cleavage
Compound: C[S+]([O-])CCCCN=C=S (centres unmarked) [SFN, 1-isothiocyanato-4-(methylsulfinyl)-butane]
melanoma cell growth in vitro (cell viability) (SK-MEL37): inhibits melanoma cell growth in vitro
increase in cytoplasmic histone associated DNA fragments compared with DMSO treated control (SK-MEL 31 cells [1]; 5 μM SFN): ~4.7 fold
increase in cytoplasmic histone associated DNA fragments compared with DMSO treated control (SK-MEL 31 cells [1]; 10 μM SFN): ~11.4 fold
condensed nucleus ratio (SK-MEL 31 cells [1]; SFN 10 or 20 μM, FIG. 5C): increased significantly
PARP cleavage (PARP): obvious increase of PARP cleavage
Bax and Bak protein level (Bax and Bak): no significant level changes
Bcl-2 protein level (Bcl-2): No marked change
Bcl-XL protein level (Bcl-XL): down-regulation
cytosolic levels of Smac and cytochrome c (Smac and cytochrome c): time-dependent increases
cIAP1 and XIAP level (cIAP1 and XIAP): consecutive cIAP1 and XIAP level decreases
caspase-8 activity increase compared with the control group (caspase-8; 16 hour): 45%
caspase-8 activity increase compared with the control group (caspase-8; 24 hour): 73%
increase in caspase-9 activity (caspase-9): 148%
melanoma cell Cyclin B1, Cdk1, and Cdc25 [3]: inhibits
side effect (weight loss, organ weight difference) [4]: No side effect was observed
reduction in tumor volume (SK-MEL 31 xenografts; 16 days after tumor implantation, versus control, p<0.01): 50%
average tumor volume (SK-MEL 31 xenografts; 16 days after tumor implantation, gavage 5.6 μmol SFN three times per week): 154.4±95.4 mm^3
tumor wet weight (SK-MEL 31 xenografts; oral SFN versus control, p<0.01): significant decrease
count of apoptotic bodies in tumor sections versus controls (TUNEL assay) (SK-MEL 31 xenografts; oral SFN, p<0.05): ~4.4 fold
cell cycle distribution (SK-MEL 31 cells [5]): significantly increase of Sub-G0/G1 and G2M phase and decreased G0/G1 phase cell number
STAT3 expression in human melanoma cells transplanted into mice (STAT3): lowered STAT3 expression
number of viable cells compared with control (SK-MEL 31 cells [6]; 10 μM SFN): 58%
number of viable cells compared to control (SK-MEL 31 cells [6]; 10 μM SFN, 48 hour): 27%
number of viable cells compared to control (SK-MEL 31 cells [6]; 10 μM SFN, 72 hour): 19%
number of viable cells compared with control (SK-MEL 31 cells [6]; 20 μM SFN): 46%
number of viable cells compared to control (SK-MEL 31 cells [6]; 20 μM SFN, 48 hour): 23%
number of viable cells compared to control (SK-MEL 31 cells [6]; 20 μM SFN, 72 hour): 13%
number of viable cells compared with control (SK-MEL 31 cells [6]; 40 μM SFN): 26%
number of viable cells compared to control (SK-MEL 31 cells [6]; 40 μM SFN, 48 hour): 10%
number of viable cells compared to control (SK-MEL 31 cells [6]; 40 μM SFN, 72 hour): 10%
melanoma cell growth in vitro (cell viability) (SK-MEL 31 cells [6]; SK-MEL31, different concentrations of SFN for 24, 48, or 72 h, FIG. 1): inhibits melanoma cell growth in vitro
